According to patent US20080194585A1, “Fungicidal Pyrazine Derivatives” (priority 2005, published 2008):
Marks after values point to notes of the source that are not given here.

Legend:
Details in all cases: 40 ppm (*)
Plasmopara viticola = experiment: Test D: grape downy mildew, spray after inoculation of grape seedlings; assay type: in vivo
Description: Upon removal, disease ratings were made. […] A dash (-) indicates no test results.

Phytophthora infestans = experiment: whole plant or invertebrate; assay type: in vivo
Septoria tritici = experiment: Test J: wheat leaf blotch, preventive spray on wheat seedlings; assay type: in vivo
Description: A dash (-) indicates no test results.

[1] = tested on: Puccinia recondita f. sp. tritici; experiment: Test K: wheat leaf rust, preventive spray on wheat seedlings
Botrytis cinerea = experiment: Test E: tomato botrytis, preventive spray on tomato seedlings
Septoria nodorum = experiment: Test H: wheat glum blotch, preventive spray on wheat seedlings
Description: (the causal agent of wheat glum blotch) and incubated in a saturated atmosphere at 20° C. for 48 h, and then moved to a growth chamber at 22° C. for 5 days, after which disease ratings were made.

[2] = tested on: Erysiphe graminis f. sp. tritici; experiment: Test L: wheat powdery mildew, preventive spray on wheat seedlings
Sclerotinia sclerotiorum = experiment: Test C: cucumber white mold, preventive spray on cucumber seedlings
Pythium aphanidermatum = experiment: Test A: bluegrass pythium blight, preventive spray on bluegrass seedlings
Rhizoctonia oryzae = experiment: Test G: turf brown patch, preventive spray on creeping bent grass seedlings
Description: (the causal agent of turf brown patch) and incubated in a saturated atmosphere at 27° C. for 24 h, and then moved to a growth chamber at 27° C. for 5 days, after which disease ratings were made.

[3] = tested on: Colletotrichum orbiculare; experiment: Test B: cucumber Colletotrichum anthracnose, preventive spray on cucumber seedlings

Structure (SMILES)	Test D disease control rating (Plasmopara viticola)	Test F disease control rating (Phytophthora infestans)	Test J disease control rating (Septoria tritici)	Test K disease control rating [1]	Test E disease control rating (Botrytis cinerea)	Test H disease control rating (Septoria nodorum)	Test L disease control rating [2]	Test C disease control rating (Sclerotinia sclerotiorum)	Test A disease control rating (Pythium aphanidermatum)	Test G disease control rating (Rhizoctonia oryzae)	Test B disease control rating [3]
CC(C)Cn1c(-c2c(F)cccc2F)c(Cl)nc(-n2ccnn2)c1=O [compound 215]	29* %	0* %	0* %	55* %	99* %	0* %	0* %	0* %	0* %	0* %	0* %
CCC(C)Cn1c(-c2ccc(F)cc2Cl)c(Cl)nc(N2CCC=N2)c1=O (stereo not drawn) [compound 216]	0* %	0* %	97* %	94* %	100* %	89* %	94* %	0* %	0* %	0* %	53* %
CCC(C)Cn1c(-c2ccc(F)cc2Cl)c(Cl)nc(N2CCC(=O)N2)c1=O (stereo not drawn) [compound 217]	0* %	0* %	96* %	86* %	100* %	86* %	62* %	90* %	0* %	0* %	0* %
CC[C@H](C)Cn1c(-c2c(F)cc(F)cc2F)c(Cl)nc(N2CCC=N2)c1=O [compound 218]	29* %	0* %	100* %	100* %	100* %	100* %	100* %	99* %	0* %	43* %	99* %
CC[C@H](C)Cn1c(-c2c(F)cc(F)cc2F)c(Cl)nc(-n2ccc(C)n2)c1=O [compound 219]	36* %	0* %	100* %	100* %	100* %	100* %	100* %	70* %	0* %	99* %	100* %
N#Cc1nc(Cl)c(-c2c(F)cccc2F)n(Cc2ccc(Cl)cc2)c1=O [compound 220]	0* %	0* %	25* %	0* %	0* %	0* %	0* %	0* %	0* %	0* %	0* %
O=c1c(-n2cccn2)nc(Cl)c(-c2c(F)cccc2F)n1Cc1ccc(Cl)cc1 [compound 221]	0* %	0* %	100* %	89* %	99* %	98* %	0* %	0* %	0* %	16* %	0* %
O=c1c(-n2cncn2)nc(Cl)c(-c2c(F)cccc2F)n1Cc1ccc(Cl)cc1 [compound 222]	0* %	0* %	86* %	79* %	92* %	60* %	0* %	0* %	0* %	0* %	0* %
CC1CCCCC1n1c(-c2c(F)cccc2F)c(Cl)nc(C#N)c1=O (stereo not drawn) [compound 223]	0* %	0* %	17* %	0* %	0* %	0* %	51* %	0* %	0* %	0* %	0* %
